Measurements taken from ChEMBL document CHEMBL5584255, “Synthesis and antibacterial medicinal evaluation of carbothioamido hydrazonyl thiazolylquinolone with multitargeting antimicrobial potential to combat increasingly global resistance” (Eur J Med Chem, 2024).
≈ marks a conversion by molar mass, not a printed value. Calls of active or inactive are those of the source. The rule behind the calls is not given here.

Assays:
Staphylococcus aureus [1] = experiment: Antibacterial activity against Staphylococcus aureus ATCC 25923 by microbroth dilution method; assay type: functional
Staphylococcus aureus [2] = experiment: Antibacterial activity against Staphylococcus aureus ATCC 29213 by microbroth dilution method; assay type: functional
Staphylococcus aureus [3] = experiment: Antibacterial activity against drug-resistant Staphylococcus aureus by microbroth dilution method; assay type: functional
Staphylococcus aureus [4] = experiment: Antibacterial activity against methicillin-resistant Staphylococcus aureus N315 by microbroth dilution method; assay type: functional
Enterococcus faecalis = experiment: Antibacterial activity against drug-resistant Enterococcus faecalis by microbroth dilution method; assay type: functional
Escherichia coli [5] = experiment: Antibacterial activity against Escherichia coli ATCC 25922 by microbroth dilution method; assay type: functional
Pseudomonas aeruginosa [6] = experiment: Antibacterial activity against Pseudomonas aeruginosa ATCC 27853 by microbroth dilution method; assay type: functional
Escherichia coli [7] = experiment: Antibacterial activity against drug-resistant Escherichia coli by microbroth dilution method; assay type: functional
Pseudomonas aeruginosa [8] = experiment: Antibacterial activity against Pseudomonas aeruginosa by microbroth dilution method; assay type: functional
Klebsiella pneumoniae = experiment: Antibacterial activity against Klebsiella pneumoniae by microbroth dilution method; assay type: functional
Acinetobacter baumannii = experiment: Antibacterial activity against Acinetobacter baumannii by microbroth dilution method; assay type: functional
Staphylococcus aureus [9] = experiment: Induction of resistance development in Staphylococcus aureus measured after 4 passages; assay type: functional
Staphylococcus aureus [10] = experiment: Potency index, ratio of norfloxacin MIC to test compound MIC for drug-resistant Staphylococcus aureus by microbroth dilution method; assay type: functional
Candida albicans [11] = experiment: Antifungal activity against Candida albicans ATCC 90023; assay type: functional
Candida albicans [12] = experiment: Antifungal activity against drug-resistant Candida albicans; assay type: functional
Candida parapsilosis = experiment: Antifungal activity against Candida parapsilosis ATCC 22019; assay type: functional; details: Lodderomyces parapsilosis
Candida tropicalis = experiment: Antifungal activity against drug-resistant Candida tropicalis; assay type: functional
Aspergillus fumigatus = experiment: Antifungal activity against Aspergillus fumigatus; assay type: functional
[13] = Hemolytic activity in human RBC assessed as hemolysis ratio at 0.0024 mM measured after 1 hr relative to control; assay type: toxicity, cell-based, Erythrocyte; details: red blood cells (erythrocytes)
[14] = Hemolytic activity in human RBC assessed as hemolysis ratio at 0.0047 mM measured after 1 hr relative to control; assay type: toxicity, cell-based, Erythrocyte; details: red blood cells (erythrocytes)
[15] = Hemolytic activity in human RBC assessed as hemolysis ratio at 0.0094 mM measured after 1 hr relative to control; assay type: toxicity, cell-based, Erythrocyte; details: red blood cells (erythrocytes)
[16] = Hemolytic activity in human RBC assessed as hemolysis ratio at 0.0189 mM measured after 1 hr relative to control; assay type: toxicity, cell-based, Erythrocyte; details: red blood cells (erythrocytes)
[17] = Cytotoxicity against human A549 cells assessed as cell viability up to 0.3019 mM measured after 72 hrs by MTT assay relative to control; assay type: toxicity, cell-based; details: read-out: Activity
[18] = Cytotoxicity against mouse L929 cells assessed as cell viability up to 0.3019 mM measured after 72 hrs by MTT assay relative to control; assay type: toxicity, cell-based; details: read-out: Activity
[19] = Toxicity in mouse assessed as change in body weight at 5 to 10 mg/kg administered for 10 days; assay type: organism-based; details: in vivo, 240 h, dose 5-10 mg/kg, time 10 day
[20] = Toxicity in mouse assessed as change in liver morphology at 5 to 10 mg/kg administered for 10 days by hematoxylin and eosin staining based assay; assay type: organism-based; details: in vivo, 240 h, dose 5-10 mg/kg, time 10 day
[21] = Toxicity in mouse assessed as change in spleen morphology at 5 to 10 mg/kg administered for 10 days by hematoxylin and eosin staining based assay; assay type: organism-based; details: in vivo, 240 h, dose 5-10 mg/kg, time 10 day
[22] = Toxicity in mouse assessed as change in kidney morphology at 5 to 10 mg/kg administered for 10 days by hematoxylin and eosin staining based assay; assay type: organism-based; details: in vivo, 240 h, dose 5-10 mg/kg, time 10 day
Staphylococcus aureus [23] = experiment: Induction of resistance development in Staphylococcus aureus measured after 16 passages; assay type: functional
DNA [24] = experiment: Binding affinity to drug-resistant Staphylococcus aureus DNA assessed as hypochromic effect at 7.86 x 10^-5 mol/L by UV-visible absorption spectra analysis; assay type: nucleic-acid assay; details: dose 7.86 10^-5mol/L
DNA [25] = experiment: Binding affinity to drug-resistant Staphylococcus aureus DNA by UV-visible absorption spectra analysis; assay type: nucleic-acid assay
DNA [26] = experiment: Displacement of neutral red from drug-resistant Staphylococcus aureus DNA assessed as DNA intercalation by UV-visible absorption spectra analysis; assay type: nucleic-acid assay; details: dose <= 1.5 10^-5mol/L
DNA [27] = experiment: Displacement of neutral red from drug-resistant Staphylococcus aureus DNA assessed as DNA intercalation by measuring blue shift up to 1.5 x 10^-5 mol/L by UV-visible absorption spectra analysis (reference value: 460 nm); assay type: nucleic-acid assay; details: dose <= 1.5 10^-5mol/L
Topoisomerase IV = Topoisomerase IV (Staphylococcus aureus, UniProt P0C1S7+P0C1U9); experiment: Inhibition of drug-resistant Staphylococcus aureus topoisomerase 4; assay type: protein-complex assay
Cell membrane = experiment: Induction of membrane permeabilization in drug-resistant Staphylococcus aureus at 0.0283 mM measured within 60 mins by propidium iodide staining based fluorescence assay

Chain of Topoisomerase IV (P0C1U9 whole entry): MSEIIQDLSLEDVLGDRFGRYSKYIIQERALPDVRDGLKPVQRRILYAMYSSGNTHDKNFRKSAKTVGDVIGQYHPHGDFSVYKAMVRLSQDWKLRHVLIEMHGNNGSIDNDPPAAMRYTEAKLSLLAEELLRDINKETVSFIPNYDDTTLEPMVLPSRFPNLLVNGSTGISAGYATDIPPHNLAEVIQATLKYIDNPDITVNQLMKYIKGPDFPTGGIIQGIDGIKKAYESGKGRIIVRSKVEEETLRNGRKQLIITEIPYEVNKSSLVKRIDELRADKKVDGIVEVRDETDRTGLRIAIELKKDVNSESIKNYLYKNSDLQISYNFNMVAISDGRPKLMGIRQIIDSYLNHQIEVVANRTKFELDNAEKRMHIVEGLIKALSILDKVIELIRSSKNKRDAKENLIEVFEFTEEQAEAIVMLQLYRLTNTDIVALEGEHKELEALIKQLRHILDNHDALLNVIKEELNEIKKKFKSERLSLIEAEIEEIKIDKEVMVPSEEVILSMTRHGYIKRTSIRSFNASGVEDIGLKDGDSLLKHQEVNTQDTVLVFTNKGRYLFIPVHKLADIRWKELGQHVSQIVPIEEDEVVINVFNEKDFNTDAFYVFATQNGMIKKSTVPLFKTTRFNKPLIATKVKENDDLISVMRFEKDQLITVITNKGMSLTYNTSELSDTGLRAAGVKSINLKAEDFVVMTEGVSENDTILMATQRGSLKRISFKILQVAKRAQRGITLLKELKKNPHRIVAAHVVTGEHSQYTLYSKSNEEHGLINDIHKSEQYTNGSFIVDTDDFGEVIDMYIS
Chain of Topoisomerase IV (P0C1S7 whole entry): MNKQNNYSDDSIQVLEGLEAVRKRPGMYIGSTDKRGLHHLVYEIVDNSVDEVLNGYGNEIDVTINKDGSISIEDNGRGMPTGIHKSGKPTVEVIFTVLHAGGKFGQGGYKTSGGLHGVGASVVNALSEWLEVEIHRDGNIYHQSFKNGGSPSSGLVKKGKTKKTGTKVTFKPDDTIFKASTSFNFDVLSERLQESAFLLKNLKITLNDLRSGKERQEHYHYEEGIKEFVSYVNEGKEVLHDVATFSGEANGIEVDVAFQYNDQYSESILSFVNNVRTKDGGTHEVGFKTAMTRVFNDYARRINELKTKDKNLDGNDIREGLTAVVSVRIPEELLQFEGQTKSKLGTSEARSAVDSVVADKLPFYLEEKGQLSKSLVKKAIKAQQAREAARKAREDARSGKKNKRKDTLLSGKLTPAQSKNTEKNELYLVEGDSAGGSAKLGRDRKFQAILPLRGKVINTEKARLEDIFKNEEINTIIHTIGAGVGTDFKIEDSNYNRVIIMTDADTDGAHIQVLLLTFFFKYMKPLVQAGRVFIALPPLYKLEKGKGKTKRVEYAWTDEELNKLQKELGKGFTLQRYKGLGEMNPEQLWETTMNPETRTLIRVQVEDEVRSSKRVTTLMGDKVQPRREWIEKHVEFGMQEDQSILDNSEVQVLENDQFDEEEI

SMILES | MIC (Staphylococcus aureus [1]) [µM] | MIC (Staphylococcus aureus [2]) [µM] | MIC (Staphylococcus aureus [3]) [µM] | MIC (Staphylococcus aureus [4]) [µM] | MIC (Enterococcus faecalis) [µM] | MIC (Escherichia coli [5]) [µM] | MIC (Pseudomonas aeruginosa [6]) [µM] | MIC (Escherichia coli [7]) [µM] | MIC (Pseudomonas aeruginosa [8]) [µM] | MIC (Klebsiella pneumoniae) [µM] | MIC (Acinetobacter baumannii) [µM] | MIC (Candida albicans [11]) [µM] | MIC (Candida albicans [12]) [µM] | MIC (Candida parapsilosis) [µM] | MIC (Candida tropicalis) [µM] | MIC (Aspergillus fumigatus) [µM] | other results
CCn1cc(C(=O)O)c(=O)c2cc(F)c(N3CCNCC3)cc21 [NORFLOXACIN] | 2 (≈ 0.639 µg/mL) | 3 (≈ 0.958 µg/mL) | 25 (≈ 7.98 µg/mL) | 25 (≈ 7.98 µg/mL) | 802 (≈ 256 µg/mL) | 25 (≈ 7.98 µg/mL) | 50 (≈ 16 µg/mL) | 1600 (≈ 512 µg/mL) | 1600 (≈ 512 µg/mL) | 802 (≈ 256 µg/mL) | 802 (≈ 256 µg/mL) |  |  |  |  |  | Activity (Staphylococcus aureus [9]): inactive
C/C(Cn1cc(-c2csc(N)n2)c(=O)c2cc(F)c(Cl)cc21)=N\NC(N)=S | 38 (≈ 16.1 µg/mL) | 5 (≈ 2.12 µg/mL) | 5 (≈ 2.12 µg/mL) | 38 (≈ 16.1 µg/mL) | 302 (≈ 128 µg/mL) | 19 (≈ 8.07 µg/mL) | 19 (≈ 8.07 µg/mL) | 151 (≈ 64.2 µg/mL) | 76 (≈ 32.3 µg/mL) | 302 (≈ 128 µg/mL) | 151 (≈ 64.2 µg/mL) | 19 (≈ 8.07 µg/mL) | 19 (≈ 8.07 µg/mL) | 5 (≈ 2.12 µg/mL) | 151 (≈ 64.2 µg/mL) | 151 (≈ 64.2 µg/mL) | Ratio (Staphylococcus aureus [10]): 5; hemolysis at 1 h, 2.4 µM [13]: 0.472%; hemolysis at 1 h, 4.7 µM [14]: 1.07%; hemolysis at 1 h, 9.4 µM [15]: 1.25%; hemolysis at 1 h, 18.9 µM [16]: 2.21%; viability at 72 h, up to 301.9 µM [17]: > 75%; viability at 72 h, up to 301.9 µM [18]: > 75%; Activity [19]: Toxic; Activity [20]: Non-Toxic; Activity [21]: Non-Toxic; Activity [22]: Non-Toxic; Activity (Staphylococcus aureus [23]): Active; Activity (DNA [24]): Active; K (DNA [25]): 6.32 10^4L/mol; Activity (DNA [26]): Dose-Dependent Effect; Activity (DNA [27]): 420 nm; IC50 (Topoisomerase IV): 10.9 µM; Activity (Cell membrane): Active
C/C(Cn1cc(-c2csc(N)n2)c(=O)c2cc(F)c(F)cc21)=N\NC(N)=S | 78 (≈ 31.9 µg/mL) | 39 (≈ 15.9 µg/mL) | 78 (≈ 31.9 µg/mL) | 78 (≈ 31.9 µg/mL) | 627 (≈ 256 µg/mL) | 314 (≈ 128 µg/mL) | 314 (≈ 128 µg/mL) | 627 (≈ 256 µg/mL) | 314 (≈ 128 µg/mL) | 627 (≈ 256 µg/mL) | 314 (≈ 128 µg/mL) | 314 (≈ 128 µg/mL) | 1260 (≈ 513 µg/mL) | 1260 (≈ 513 µg/mL) | 1260 (≈ 513 µg/mL) | 314 (≈ 128 µg/mL) | 
CC(=O)Cn1cc(-c2csc(C)n2)c(=O)c2cc(F)cc(F)c21 | 1530 (≈ 513 µg/mL) | 1530 (≈ 513 µg/mL) | 1530 (≈ 513 µg/mL) | 1530 (≈ 513 µg/mL) | 1530 (≈ 513 µg/mL) | 1530 (≈ 513 µg/mL) | 1530 (≈ 513 µg/mL) | 1530 (≈ 513 µg/mL) | 1530 (≈ 513 µg/mL) | 383 (≈ 128 µg/mL) | 766 (≈ 256 µg/mL) | 766 (≈ 256 µg/mL) | 1530 (≈ 513 µg/mL) | 1530 (≈ 513 µg/mL) | 1530 (≈ 513 µg/mL) | 383 (≈ 128 µg/mL) | 
Nc1nc(-c2c[nH]c3cc(Cl)c(F)cc3c2=O)cs1 | 217 (≈ 64.2 µg/mL) | 434 (≈ 128 µg/mL) | 868 (≈ 257 µg/mL) | 1740 (≈ 513 µg/mL) | 868 (≈ 257 µg/mL) | 217 (≈ 64.2 µg/mL) | 868 (≈ 257 µg/mL) | 434 (≈ 128 µg/mL) | 868 (≈ 257 µg/mL) | 868 (≈ 257 µg/mL) | 868 (≈ 257 µg/mL) | 109 (≈ 32.2 µg/mL) | 217 (≈ 64.2 µg/mL) | 1740 (≈ 513 µg/mL) | 217 (≈ 64.2 µg/mL) | 217 (≈ 64.2 µg/mL) | 
Nc1nc(-c2c[nH]c3c(F)cc(F)cc3c2=O)cs1 | 459 (≈ 128 µg/mL) | 918 (≈ 256 µg/mL) | 918 (≈ 256 µg/mL) | 459 (≈ 128 µg/mL) | 229 (≈ 64 µg/mL) | 459 (≈ 128 µg/mL) | 229 (≈ 64 µg/mL) | 459 (≈ 128 µg/mL) | 459 (≈ 128 µg/mL) | 459 (≈ 128 µg/mL) | 459 (≈ 128 µg/mL) | 115 (≈ 32.1 µg/mL) | 115 (≈ 32.1 µg/mL) | 459 (≈ 128 µg/mL) | 229 (≈ 64 µg/mL) | 459 (≈ 128 µg/mL) | 
C/C(Cn1cc(-c2csc(N)n2)c(=O)c2cc(F)c(Cl)cc21)=N\O | 44 (≈ 16.1 µg/mL) | 44 (≈ 16.1 µg/mL) | 44 (≈ 16.1 µg/mL) | 350 (≈ 128 µg/mL) | 350 (≈ 128 µg/mL) | 22 (≈ 8.07 µg/mL) | 44 (≈ 16.1 µg/mL) | 350 (≈ 128 µg/mL) | 87 (≈ 31.9 µg/mL) | 699 (≈ 256 µg/mL) | 350 (≈ 128 µg/mL) | 44 (≈ 16.1 µg/mL) | 87 (≈ 31.9 µg/mL) | 44 (≈ 16.1 µg/mL) | 699 (≈ 256 µg/mL) | 699 (≈ 256 µg/mL) | 
C/C(Cn1cc(-c2csc(N)n2)c(=O)c2cc(F)cc(F)c21)=N\NC(N)=S | 157 (≈ 64.1 µg/mL) | 78 (≈ 31.9 µg/mL) | 78 (≈ 31.9 µg/mL) | 314 (≈ 128 µg/mL) | 1260 (≈ 513 µg/mL) | 1260 (≈ 513 µg/mL) | 627 (≈ 256 µg/mL) | 1260 (≈ 513 µg/mL) | 627 (≈ 256 µg/mL) | 627 (≈ 256 µg/mL) | 627 (≈ 256 µg/mL) | 627 (≈ 256 µg/mL) | 627 (≈ 256 µg/mL) | 314 (≈ 128 µg/mL) | 627 (≈ 256 µg/mL) | 1260 (≈ 513 µg/mL) | 
